# Read-outs that look alike come from different tables or passages of the source.
# Columns and labels:
# WA09 hES cells [1] = assay: Phase 2 targeted biomarker assay, ornithine/cystine ratio, 9-point dose response; settings: for Teratogenicity Potential (μM) O/C Ratio: human, 72 h
# Method in brief: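 WA09 hES cells (≤ passage 40), plated as single cells at 100,000/well on Matrigel in mTeSR1 with 10 μM Y27632, dosed 24 h later with nine 3-fold dilutions, 0.04–300 μM, 0.1% DMSO, for 72 h. Final-24 h spent medium, spiked with 13C6-arginine and filtered (<10 kDa), analysed by LC-HRMS; viability by CellTiter-Fluor.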
# WA09 hES cells [2] = settings: for Teratogenicity Potential (μM) Cell Viability: human, 72 h
# [3] = summarized from TERIS and Briggs et al. 2011, cited from earlier work
# Rodent = settings: training and test set; cited from earlier work
# [4] = therapeutic peak plasma in vivo concentration, human, cited from earlier work
# Rabbit = settings: training and test set; cited from earlier work
# rat = settings: cited from earlier work
# Humans = settings: cited from earlier work; for Humans (known human developmental toxicity): training and test set
# [5] = system: mouse embryonic stem cell; settings: training and test set; weak/moderate and strong teratogens both labeled teratogen; cited from earlier work
# zebrafish = settings: training and test set; weak/moderate and strong teratogens both labeled teratogen; cited from earlier work
# hES cells [6] = assay: devTOX computational model predictions (Version 2.0, Version 2.1) from hES cell metabolomics; assay type: cell-based, human; settings: single dose per treatment (Dose column)
# Source text: The selection process weighted the predictive capacity of a feature, overall intensity, and peak shape to identify very well behaved features/metabolites that could be measured by targeted LC-MS or even by other detection systems.
# This simplified model is based on a ratio of the reference treatment (DMSO) normalized values of ADMA and cystine.
# [7] = Solubility in DMSO for stock solutions; settings: at the stock concentrations used in this study
# Description: Phase I hES Cell Compound Exposure. hES cells were treated with a test compound at a single concentration equivalent to the compound's published therapeutic Cmax. […] This was done to ensure that enough cells were present at the time of sample collection to provide a signal for LC-HRMS analysis. For test compound exposure, all compound stock solutions, with the exception of valproic acid, were made with DMSO (Sigma-Aldrich). […] Each 96-well plate included media controls with and without test compound, 0.1% DMSO solvent control cells and cells exposed to a single concentration of eight different test compounds (FIG. 1A). Media controls were included on each plate to assess the impact of test compound on the sample matrix. hES cells were exposed to the test compound for 72 hours, with media and test compound replacement every 24 hours. Cells were monitored throughout the treatment period to ensure that no differentiation was occurring. After 72 hours of treatment, the spent media from the final 24-hour treatment period was collected and added to acetonitrile (Sigma-Aldrich, final acetonitrile concentration 40%), to halt metabolic processes and precipitate proteins from solution. Individual wells from each 96-well plate were collected and analyzed as separate samples. These samples were then stored at −80° C. until prepared for LC-HRMS analysis. Cell viability was assessed using the CellTiter-Fluor Cell Viability Assay as per the manufacturer's instructions (Promega, Madison, Wis.). […]
# Phase 2 hES Cell Compound Exposure. […] Cell viability was assessed using the CellTiter-Fluor Cell Viability Assay. A quality control step was included with criteria that the CV of the measured viability RFU of the DMSO control cells could not exceed 10% for a plate to undergo LC-HRMS analysis. […]
# hES cells [8] = assay: ADMA/cystine ratio simplified predictive model in hES cell spent media; assay type: cell-based, human; settings: single dose per treatment; ratios less than 0.9 indicate teratogenicity
# Method in brief: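 hES cell spent media were analysed for ADMA and cystine, each normalized to the DMSO reference, and their ratio formed. Each value is the median of independent blocks (6 reps each). A ratio cutoff of 0.9 classifies teratogens versus non-teratogens.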
# rat whole embryo = settings: training and test set; weak/moderate and strong teratogens both labeled teratogen; cited from earlier work
Structure (SMILES),O/C Ratio Prediction (WA09 hES cells [1]),Targeted Biomarker Assay prediction (WA09 hES cells [1]),Teratogenicity Potential (μM) O/C Ratio (WA09 hES cells [1]) [µM],Viability Prediction (WA09 hES cells [2]),Teratogenicity Potential (μM) Cell Viability (WA09 hES cells [2]) [µM],Preclinical in vivo and known human developmental effects ([3]; test set compounds),Rodent prediction (Rodent),Cmax ([4]; test set) [µM],Rabbit prediction (Rabbit),Humans (known human developmental toxicity) (Humans),mEST prediction [5],ZET prediction (zebrafish),further results
CS(=O)(=O)CCNCc1ccc(-c2ccc3ncnc(Nc4ccc(OCc5cccc(F)c5)c(Cl)c4)c3c2)o1 [Lapatinib],NON,NON,29,NON,20.8,"Skeletal, embryo toxicity^c",TER,4.2,TER,TER,–,–,"Exposure level causing rat pup mortality relative to human clinical exposure based on AUC (rat; given during organogenesis, Briggs et al. 2011): about 3.3 times"
CC[C@H](C)C(=O)O[C@H]1C[C@@H](C)C=C2C=C[C@H](C)[C@H](CC[C@@H]3C[C@@H](O)CC(=O)O3)[C@H]21 [Lovastatin],NON,NON,1.3,NON,4.1,"Skeletal, embryo toxicity^c",TER,0.02,NON,TER,TER^m,TER^d,"Cmax (rat; in vivo, 100 mg/kg/day): ~1.5 µM; lowest observed adverse effect level (LOAEL) (rat; in vivo): 100 mg/kg body weight per day"
CCCC(CCC)C(=O)O [Valproic Acid],TER,TER,90.8,NON,1113.7,–,TER,–,TER^u,TER,"TER^b,i","TER^e,n","Change in the o/c ratio, also relative to cytotoxicity (WA09 hES cells [1]): marked change in the o/c ratio at exposure levels well before cytotoxicity is observed; Model Predictions Version 2.0 (hES cells [6]): Ter; Model Predictions Version 2.1 (hES cells [6]): Ter; Solubility in DMSO (words) ([7]; listed as Valproic acid): insoluble in DMSO; Solubility in DMSO (words) ([7]; listed as valproic acid): completely insoluble in DMSO; Model Predictions ADMA/Cystine (hES cells [8]): Ter; Preclinical in vivo and known human developmental effects ([3]; training set compounds): Central nervous system,; Cmax ([4]; training set): 1000 µM; WEC prediction (rat whole embryo): TER^f,j; Known Effect (Humans; validation and test set treatments of Example 2): Ter"
